Source: patent US7259140B2, “Heparin-binding peptides and uses thereof” (Thomas Jefferson University, priority 2003, dated 2007)
Ends that are not written are not given here.

What was measured:
[1] = Affinity coelectrophoresis (ACE) of peptide binding to radiolabeled low Mr heparin; design: species or system pig; settings: pH 7.0, mean and standard deviation of four assays, read-out: Kd (nM), affinity for low molecular weight heparin
In short: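 Trace ¹²⁵I-tyramine end-labelled low-Mr (≦6,000) pig mucosal heparin electrophoresed through 1% agarose lanes containing serially diluted peptides in 50 mM MOPSO/125 mM sodium acetate, pH 7.0, with CHAPS. Heparin mobility read by phosphorimager; retardation coefficients fitted to R=R∞/{1+(Kd/[peptide])^n} to give apparent Kd.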

[2] = system: anti-Factor Xa Activity of the Low Molecular Weight Heparin Lovenox ®; test: Anti-Factor Xa assay (Stachrom Heparin kit): neutralization of Lovenox in citrate or plasma in vitro; assay type: biochemical, human; settings: for Lovenox ® Neutralized: Lovenox 0.7 U/ml; for anti-Factor Xa activity of LMWH neutralized: 12 μg/ml, plasma; for anti-LMWH effect in citrate compared with plasma: Table 2A; for Lovenox/LMWH neutralization compared with protamine: low concentrations, in the presence of plasma
In short: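 Chromogenic anti-Factor Xa kit run with UFH, enoxaparin (Lovenox) or danaparoid (Orgaran) in 0.32% citrate or citrated plasma from three volunteers. Heparin/ATIII complex formed, peptide added, then Factor Xa and dye substrate; absorbance at 405 nm, inversely proportional to remaining anti-Factor Xa activity.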

[3] = system: Lovenox ® Activity in Blood from Patients Treated with Lovenox ®; test: Neutralizing Lovenox activity in blood from patients treated with Lovenox (anti-Factor Xa assay); assay type: biochemical, human; settings: for Lovenox ® Neutralized: Peptide 12 μg/ml
In short: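 Blood came from consenting volunteers already on Lovenox® therapy. Neutralizing peptides were tested as a dose response from 1–60 μg/ml. Each point is mean ± SD of triplicate analyses on one patient's blood sample.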

[4] = blood of Lovenox-treated Patient Number 1
[5] = blood of Lovenox-treated Patient Number 2
[6] = blood of Lovenox-treated Patient Number 3
[7] = blood of Lovenox-treated Patient Number 4
[8] = blood of Lovenox-treated Patient Number 5
[9] = blood of Lovenox-treated Patient Number 8
[10] = blood of Lovenox-treated Patient Number 9
[11] = blood of Lovenox-treated Patient Number 10
[12] = blood of Lovenox-treated Patient Number 11

With “ARKKAAKAARKKAAKAARKKAAKAVLVLVLVL [(ARKKAAKA)3VLVLVLVL]” as the substance, how does the Kd [1] read?
Its Kd is 57 ± 23 nM.

And the “rank as neutralizing agent of Lovenox” value [2]?
The value was “most effective neutralizing agents”.

What about the “Lovenox ® Neutralized” value ([2]; 1 μg/ml Peptide, A Plasma) of the same substance?
The value was 0.055 ± 0.041 U/ml.

What about the “Lovenox ® Neutralized” value ([2]; 1 μg/ml Peptide, B Plasma) of the same substance?
Its value is 0.035 ± 0.009 U/ml.

What about the “Lovenox ® Neutralized” value ([2]; 1 μg/ml Peptide, C Plasma) of the same substance?
The value was 0.058 ± 0.054 U/ml.

What about the “Lovenox ® Neutralized” value ([2]; 1 μg/ml Peptide, Citrate) of the same substance?
The value was 0.082 ± 0.027 U/ml.

What about the “Lovenox ® Neutralized” value ([2]; 6 μg/ml Peptide, A Plasma) of the same substance?
The value was 0.292 ± 0.047 U/ml.

And the “Lovenox ® Neutralized” value ([2]; 6 μg/ml Peptide, B Plasma)?
The value was 0.189 ± 0.066 U/ml.

And the “Lovenox ® Neutralized” value ([2]; 6 μg/ml Peptide, C Plasma)?
The value was 0.202 ± 0.042 U/ml.

What about the “Lovenox ® Neutralized” value ([2]; 6 μg/ml Peptide, Citrate) of the same substance?
The value was 0.288 ± 0.045 U/ml.

What about the “Lovenox ® Neutralized” value ([2]; 12 μg/ml Peptide, A Plasma) of the same substance?
The value was 0.441 ± 0.058 U/ml.

What about the “Lovenox ® Neutralized” value ([2]; 12 μg/ml Peptide, B Plasma) of the same substance?
The value was 0.376 ± 0.001 U/ml.

What about the “Lovenox ® Neutralized” value ([2]; 12 μg/ml Peptide, C Plasma) of the same substance?
The value was 0.371 ± 0.031 U/ml.

What about the “Lovenox ® Neutralized” value ([2]; 12 μg/ml Peptide, Citrate) of the same substance?
Its value is 0.412 ± 0.035 U/ml.

What about the “anti-Factor Xa activity of LMWH neutralized” value [2] of the same substance?
The value was “about 0.4 U/ml”.

What about the “Lovenox ® Neutralized” value ([2]; 60 μg/ml Peptide, A Plasma) of the same substance?
The value was 0.588 ± 0.027 U/ml.

And the “Lovenox ® Neutralized” value ([2]; 60 μg/ml Peptide, B Plasma)?
The value was 0.561 ± 0.035 U/ml.

And the “Lovenox ® Neutralized” value ([2]; 60 μg/ml Peptide, C Plasma)?
Its value is 0.532 ± 0.023 U/ml.

And the “Lovenox ® Neutralized” value ([2]; 60 μg/ml Peptide, Citrate)?
The value was 0.441 ± 0.010 U/ml.

What about the “Lovenox ® Neutralized” value ([2]; 120 μg/ml Peptide, A Plasma) of the same substance?
Its value is 0.575 ± 0.057 U/ml.

And the “Lovenox ® Neutralized” value ([2]; 120 μg/ml Peptide, B Plasma)?
The value was 0.480 ± 0.035 U/ml.

And the “Lovenox ® Neutralized” value ([2]; 120 μg/ml Peptide, C Plasma)?
The value was 0.485 ± 0.022 U/ml.

What about the “Lovenox ® Neutralized” value ([2]; 120 μg/ml Peptide, Citrate) of the same substance?
The value was 0.463 ± 0.029 U/ml.

What about the “anti-LMWH effect in citrate compared with plasma” value [2] of the same substance?
Its value is “neutralize the same amount of Lovenox® in citrate and plasma”.

And the “Lovenox/LMWH neutralization compared with protamine” value [2]?
Its value is “more effective than protamine”.

And the “effectiveness in neutralizing Lovenox in blood of patients” value [3]?
The value was “most consistently effective”.

What about the “Lovenox ® Neutralized” value [3, 4] of the same substance?
The value was 0.213 U/ml.

And the “Lovenox ® Neutralized” value [3, 5]?
Its value is 0.252 U/ml.

What about the “Lovenox ® Neutralized” value [3, 6] of the same substance?
The value was 0.302 U/ml.

What about the “Lovenox ® Neutralized” value [3, 7] of the same substance?
The value was 0.439 U/ml.

And the “Lovenox ® Neutralized” value [3, 8]?
The value was 0.265 U/ml.

And the “Lovenox ® Neutralized” value [3, 9]?
The value was 0.268 U/ml.

And the “Lovenox ® Neutralized” value [3, 10]?
The value was 0.478 U/ml.

And the “Lovenox ® Neutralized” value [3, 11]?
The value was 0.436 U/ml.

And the “Lovenox ® Neutralized” value [3, 12]?
The value was 0.398 U/ml.

Which Kd [1] does the source give for “VLVL(ARKKAAKA)3ARKKCAKA (VLVLARKKAAKAARKKAAKAARKKAAKAARKKCAKA; Fragment)” here?
Its Kd is 48 ± 11 nM.

What about the “rank as neutralizing agent of Lovenox” value [2] of the same substance?
Its value is “most effective neutralizing agents”.

What about the “Lovenox ® Neutralized” value ([2]; 1 μg/ml Peptide, A Plasma) of the same substance?
The value was 0.080 ± .036 U/ml.

And the “Lovenox ® Neutralized” value ([2]; 1 μg/ml Peptide, B Plasma)?
The value was 0.071 ± 0.056 U/ml.

What about the “Lovenox ® Neutralized” value ([2]; 1 μg/ml Peptide, C Plasma) of the same substance?
Its value is 0.077 ± 0.055 U/ml.

And the “Lovenox ® Neutralized” value ([2]; 1 μg/ml Peptide, Citrate)?
The value was 0.091 ± .053 U/ml.

What about the “Lovenox ® Neutralized” value ([2]; 6 μg/ml Peptide, A Plasma) of the same substance?
Its value is 0.218 ± .026 U/ml.

What about the “Lovenox ® Neutralized” value ([2]; 6 μg/ml Peptide, B Plasma) of the same substance?
Its value is 0.233 ± 0.025 U/ml.

And the “Lovenox ® Neutralized” value ([2]; 6 μg/ml Peptide, C Plasma)?
The value was 0.217 ± 0.154 U/ml.

And the “Lovenox ® Neutralized” value ([2]; 6 μg/ml Peptide, Citrate)?
Its value is 0.432 ± .086 U/ml.

What about the “Lovenox ® Neutralized” value ([2]; 12 μg/ml Peptide, A Plasma) of the same substance?
Its value is 0.365 ± .076 U/ml.

What about the “Lovenox ® Neutralized” value ([2]; 12 μg/ml Peptide, B Plasma) of the same substance?
Its value is 0.290 ± 0.047 U/ml.

What about the “Lovenox ® Neutralized” value ([2]; 12 μg/ml Peptide, C Plasma) of the same substance?
The value was 0.380 ± 0.045 U/ml.

And the “Lovenox ® Neutralized” value ([2]; 12 μg/ml Peptide, Citrate)?
Its value is 0.484 ± .012 U/ml.

What about the “anti-Factor Xa activity of LMWH neutralized” value [2] of the same substance?
The value was “about 0.4 U/ml”.

What about the “Lovenox ® Neutralized” value ([2]; 60 μg/ml Peptide, A Plasma) of the same substance?
The value was 0.483 ± .070 U/ml.

And the “Lovenox ® Neutralized” value ([2]; 60 μg/ml Peptide, B Plasma)?
The value was 0.456 ± 0.029 U/ml.

And the “Lovenox ® Neutralized” value ([2]; 60 μg/ml Peptide, C Plasma)?
The value was 0.461 ± 0.05 U/ml.

And the “Lovenox ® Neutralized” value ([2]; 60 μg/ml Peptide, Citrate)?
The value was 0.550 ± .027 U/ml.

And the “Lovenox ® Neutralized” value ([2]; 120 μg/ml Peptide, A Plasma)?
Its value is 0.674 ± .105 U/ml.

What about the “Lovenox ® Neutralized” value ([2]; 120 μg/ml Peptide, B Plasma) of the same substance?
The value was 0.515 ± 0.005 U/ml.

And the “Lovenox ® Neutralized” value ([2]; 120 μg/ml Peptide, C Plasma)?
Its value is 0.483 ± 0.044 U/ml.

What about the “Lovenox ® Neutralized” value ([2]; 120 μg/ml Peptide, Citrate) of the same substance?
The value was 0.533 ± .017 U/ml.

What about the “anti-LMWH effect in citrate compared with plasma” value [2] of the same substance?
Its value is “greater anti-LMWH effect in citrate than in plasma”.

What about the “Lovenox/LMWH neutralization compared with protamine” value [2] of the same substance?
Its value is “more effective than protamine”.

And the “Lovenox ® Neutralized” value [3, 4]?
Its value is 0.043 U/ml.

What about the “Lovenox ® Neutralized” value [3, 5] of the same substance?
The value was 0.335 U/ml.

What about the “Lovenox ® Neutralized” value [3, 6] of the same substance?
The value was 0.008 U/ml.

And the “Lovenox ® Neutralized” value [3, 7]?
Its value is 0.172 U/ml.

And the “Lovenox ® Neutralized” value [3, 8]?
Its value is 0.110 U/ml.

And the “Lovenox ® Neutralized” value [3, 9]?
The value was 0.329 U/ml.

And the “Lovenox ® Neutralized” value [3, 10]?
Its value is 0.200 U/ml.

And the “Lovenox ® Neutralized” value [3, 11]?
The value was 0.184 U/ml.

What about the “Lovenox ® Neutralized” value [3, 12] of the same substance?
The value was 0.240 U/ml.
